{
  "source": "patent US20040048262A1",
  "about": "“Methods for determining the bilogical effects of compounds on gene expression” (priority 2003, published 2004)",
  "test_system": "PC12 cells",
  "assay": "Transcription factor DNA-binding activity profile, nuclear extracts of NGF-treated PC12 cells, random 16-mer library (FIG. 2)",
  "format": "cell-based",
  "settings": "200 ng/ml NGF-beta, 5 hr, vs untreated",
  "description": "FIG. 2 is a bar graph showing the effects of nerve growth factor (NGF) treatment on transcription factor DNA-binding activities in PC12 cells. The identity of the specific transcription factors whose binding activity is being detected are listed on the X-axis. The level of DNA binding activity for each individual transcription factor is depicted as a percentage of the total number of DNA fragments sequenced from the “bound” fraction of the DNA library used in the binding reactions and containing the cognate site for that particular protein (shown as a numerical value on the Y-axis). The level of binding activities for all the proteins detected as a result of their cognate binding sites being found in the “bound” fraction of the DNA library constitutes the transcription factor activity profiles for PC12 cells and PC12 cells following NGF treatment. The profiles generated provide a useful indicator of the mechanism of action of the compound being used for the cell treatrment. For example, if the mechanism of action of NGF was to increase the expression of a particular cell surface receptor, then one would expect to see altered levels of binding activities for those transcription factors known to regulate the expression of the gene that encodes that particular receptor in the NGF-treated sample. If one did indeed see altered binding activity levels of factors known to regulate a particular receptor gene or set of genes, then one could immediately assay for those changes in gene expression as a result of inference from the transcription factor activity profile.\nIn a specific example, PC12 cells were grown in high glucose DMEM containing 10% horse serum and 5% fetal calf serum. For differentiation, cells were transferred to serum-free medium containing N-2 Supplement (Life Technologies) and 200 ng/ml Nerve Growth Factor-beta (Sigma). Cells were harvested after 5 hr and nuclear extracts were prepared as described above. A positive response of the PC12 cells to NGF was monitored by EMSA of AP-1 activity.\nIn this example, nuclear extracts were incubated with a random 16-mer library and the DNA present in specific protein/DNA complexes was isolated and sequenced. Known transcription factor binding sites present in the DNA sequences were counted as described in Example 1 and the data generated are presented in FIG. 2 in the same mainer as in Example 2. Thus, the bars indicate the percentage of DNA fragments containing selected cis sites that were isolated in binding reactions containing nuclear extracts from either untreated (white bars) or NGF-treated (black bars) PC12 cells. It can be seen that NGF-treatment leads to an increase in binding activity for AP 1, ATF, TCF11 (among others), while for example E2F and RFX1 activities are reduced after NGF treatment.",
  "data": [
    {"substance": "NGF: Nerve Growth Factor-beta (Sigma)", "values": [
      {"measurement": "change in E2F activity after NGF treatment", "value": "reduced"},
      {"measurement": "change in RFX1 activity after NGF treatment", "value": "reduced"},
      {"measurement": "change in binding activity for AP 1 after NGF treatment", "value": "increase"},
      {"measurement": "change in binding activity for ATF after NGF treatment", "value": "increase"},
      {"measurement": "change in binding activity for TCF11 after NGF treatment", "value": "increase"}
    ]}
  ]
}
